Reference: patent US10280169B2, “Biaryl bruton's tyrosine kinase inhibitors” (BIOGEN MA INC., priority 2013, dated 2019)
pIC50: −log10 of the molar value.

Each molecule was assayed against T1, BTK (Homo sapiens, UniProt Q06187) (assay: In vitro BTK kinase assay: BTK-POLYGAT-LS assay). Conditions: 10 uM ATP, read-out: IC50 (10 uMATP).
T1 construct: purchased Upstate 14-552
T1 sequence (Q06187 whole entry): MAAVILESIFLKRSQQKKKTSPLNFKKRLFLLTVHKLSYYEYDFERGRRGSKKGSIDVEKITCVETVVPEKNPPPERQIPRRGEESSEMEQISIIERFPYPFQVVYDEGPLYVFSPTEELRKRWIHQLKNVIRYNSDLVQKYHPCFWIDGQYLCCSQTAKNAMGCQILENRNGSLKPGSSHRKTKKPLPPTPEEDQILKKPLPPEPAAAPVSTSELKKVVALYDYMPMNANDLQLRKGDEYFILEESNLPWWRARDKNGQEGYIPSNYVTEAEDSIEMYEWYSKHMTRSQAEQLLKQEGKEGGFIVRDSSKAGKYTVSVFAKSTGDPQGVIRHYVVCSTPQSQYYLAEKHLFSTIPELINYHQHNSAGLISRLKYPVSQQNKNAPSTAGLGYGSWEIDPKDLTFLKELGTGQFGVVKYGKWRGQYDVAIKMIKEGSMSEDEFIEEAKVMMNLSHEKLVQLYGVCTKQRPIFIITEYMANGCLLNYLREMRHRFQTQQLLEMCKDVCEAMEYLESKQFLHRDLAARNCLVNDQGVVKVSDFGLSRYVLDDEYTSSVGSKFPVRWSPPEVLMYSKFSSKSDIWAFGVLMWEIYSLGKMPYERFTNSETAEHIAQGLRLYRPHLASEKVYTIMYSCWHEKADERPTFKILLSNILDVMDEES
Type: biochemical
`CC(C)(C)c1ccc(C(=O)NC2CCCc3cc(-c4ncnc5[nH]ccc45)ccc32)nc1` (stereo not shown) [Example I-15, N-(6-(7H-pyrrolo[2,3-d]pyrimidin-4-yl)-1,2,3,4-tetrahydronaphthalen-1-yl)-5-(tert-butyl)picolinamide] gave a pIC50 of 7.00 to 8.00.
`CC(C)(C)c1ccc(C(=O)NCc2ccc(-c3ncnc4[nH]ccc34)cc2C(F)(F)F)cc1` [Example I-3, N-(4-(7H-pyrrolo[2,3-d]pyrimidin-4-yl)-2-(trifluoromethyl)benzyl)-4-(tert-butyl)benzamide] showed a pIC50 of 7.00 to 8.00.
`O=C(NCc1ccc(-c2ncnc3[nH]ccc23)cc1)c1cc2c(s1)CCCC2` [Example I-65, N-(4-(7H-pyrrolo[2,3-d]pyrimidin-4-yl)benzyl)-4,5,6,7-tetrahydrobenzo[b]thiophene-2-carboxamide] gave a pIC50 of 7.00 to 8.00.
Molecule `O=C(NCc1ccc(-c2ncnc3[nH]ccc23)cc1)c1cc(C(F)(F)F)c(Cl)cn1` [Example I-63, N-(4-(7H-pyrrolo[2,3-d]pyrimidin-4-yl)benzyl)-5-chloro-4-(trifluoromethyl)picolinamide] has a pIC50 of 5.00 to 6.00.
Work on `CC(C)(C)c1ccc(C(=O)NC2COCc3cc(-c4ncnc5[nH]ccc45)ccc32)cc1` (stereo not shown) [Example I-83, N-(7-(7H-pyrrolo[2,3-d]pyrimidin-4-yl)isochroman-4-yl)-4-(tert-butyl)benzamide] yielded a pIC50 of 5.00 to 6.00.
In the case of `Cc1cc(-c2ncnc3nc(N4CC(N(C)C)C4)[nH]c23)ccc1CNC(=O)c1cnc(C(C)(C)C)s1` [Example I-53, 2-(tert-butyl)-N-(4-(8-(3-(dimethylamino)azetidin-1-yl)-7H-purin-6-yl)-2-methylbenzyl)thiazole-5-carboxamide], the pIC50 was over 8.00.
In the case of `Cc1c(-c2ncnc3[nH]ccc23)ccc2c1CCCC2NC(=O)c1ccc(C(C)(C)C)cc1` (stereo not shown) [Compound I-155], the pIC50 was 5.00 to 6.00.
For `Cn1cc(-c2cc3c(-c4ccc5c(c4)CCCCC5NC(=O)c4cnc(C(C)(C)C)s4)ncnc3[nH]2)cn1` (stereo not shown) [Example I-161, 2-(tert-butyl)-N-(2-(6-(1-methyl-1H-pyrazol-4-yl)-7H-pyrrolo[2,3-d]pyrimidin-4-yl)-6,7,8,9-tetrahydro-5H-benzo[7]annulen-5-yl)thiazole-5-carboxamide], the pIC50 was over 8.00.
For `Cc1nc(-c2ccnc3[nH]ncc23)ccc1CNC(=O)c1cc2c(s1)CCCC2` [Example I-118, N-((2-methyl-6-(1H-pyrazolo[3,4-b]pyridin-4-yl)pyridin-3-yl)methyl)-4,5,6,7-tetrahydrobenzo[b]thiophene-2-carboxamide], the pIC50 was over 8.00.
In the case of `CC(C)(C)c1ccc(C(=O)NCc2ccc(-c3ncnc4[nH]ncc34)cc2)cc1` [Example I-84, N-(4-(1H-pyrazolo[3,4-d]pyrimidin-4-yl)benzyl)-4-(tert-butyl)benzamide], the pIC50 was 6.00 to 7.00.
`O=C(NCc1ccc(-c2ncnc3[nH]ccc23)cc1)c1nc2c(s1)CCCC2` [Example I-62, N-(4-(7H-pyrrolo[2,3-d]pyrimidin-4-yl)benzyl)-4,5,6,7-tetrahydrobenzo[d]thiazole-2-carboxamide] showed a pIC50 of 7.00 to 8.00.
`Cn1c(C(=O)NC2CCCc3cc(-c4ncnc5[nH]ncc45)ccc32)nc2ccccc21` (stereo not shown) [Example I-101, N-(6-(1H-pyrazolo[3,4-d]pyrimidin-4-yl)-1,2,3,4-tetrahydronaphthalen-1-yl)-1-methyl-1H-benzo[d]imidazole-2-carboxamide] was tested, and the pIC50 was 6.00 to 7.00.
`CC(C)(C)C1CCC(C(=O)NC2CCCc3cc(-c4ncnc5[nH]ncc45)ccc32)CC1` (stereo not shown) [Example I-104, N-(6-(1H-pyrazolo[3,4-d]pyrimidin-4-yl)-1,2,3,4-tetrahydronaphthalen-1-yl)-4-(tert-butyl)cyclohexanecarboxamide] showed a pIC50 of 6.00 to 7.00.
Work on `O=C(NC1CCCc2cc(-c3ncnc4[nH]ncc34)ccc21)c1nc2c(s1)CCCC2` (stereo not shown) [Example I-137, N-(6-(1H-pyrazolo[3,4-d]pyrimidin-4-yl)-1,2,3,4-tetrahydronaphthalen-1-yl)-4,5,6,7-tetrahydrobenzo[d]thiazole-2-carboxamide] yielded a pIC50 of 7.00 to 8.00.
Molecule `Cc1cc(-c2ncnc3nc(N4CCC(N(C)C)C4)[nH]c23)ccc1CNC(=O)c1cnc(C(C)(C)C)s1` (stereo not shown) [Example I-50, 2-(tert-butyl)-N-(4-(8-(3-(dimethylamino)pyrrolidin-1-yl)-7H-purin-6-yl)-2-methylbenzyl)thiazole-5-carboxamide] has a pIC50 of over 8.00.
In the case of `CC(C)(C)c1ncc(C(=O)N[C@H]2CCCc3cc(-c4ccnc5[nH]ncc45)cnc32)s1` [Example I-152, (S)—N-(3-(1H-pyrazolo[3,4-b]pyridin-4-yl)-5,6,7,8-tetrahydroquinolin-8-yl)-2-(tert-butyl)thiazole-5-carboxamide], the pIC50 was 5.00 to 6.00.
`O=C(NCc1ccc(-c2ncnc3[nH]ccc23)cc1)c1ccc(C(F)(F)F)cc1` [Example I-66, N-(4-(7H-pyrrolo[2,3-d]pyrimidin-4-yl)benzyl)-4-(trifluoromethyl)benzamide] gave a pIC50 of 6.00 to 7.00.
Work on `Cc1cc(-c2ncnc3[nH]c(-c4cnn5c4CN(C)CC5)cc23)ccc1CNC(=O)c1cnc(C(C)(C)C)s1` [Example I-102, 2-(tert-butyl)-N-(2-methyl-4-(6-(5-methyl-4,5,6,7-tetrahydropyrazolo[1,5-a]pyrazin-3-yl)-7H-pyrrolo[2,3-d]pyrimidin-4-yl)benzyl)thiazole-5-carboxamide] yielded a pIC50 of over 8.00.
Molecule `CC(C)(C)c1ccc(C(=O)NCc2ccc(-c3ccnc4[nH]ccc34)nc2)nc1` [Example I-72, N-((6-(1H-pyrrolo[2,3-b]pyridin-4-yl)pyridin-3-yl)methyl)-5-(tert-butyl)picolinamide] has a pIC50 of 6.00 to 7.00.
Work on `O=C(NC1CCCc2cc(-c3ncnc4[nH]ncc34)ccc21)c1nc2c(s1)CCC2` (stereo not shown) [Example I-130, N-(6-(1H-pyrazolo[3,4-d]pyrimidin-4-yl)-1,2,3,4-tetrahydronaphthalen-1-yl)-5,6-dihydro-4H-cyclopenta[d]thiazole-2-carboxamide] yielded a pIC50 of 7.00 to 8.00.
Work on `O=C(NC1CCCc2cc(-c3ncnc4[nH]ncc34)ccc21)c1nc2ccccc2s1` (stereo not shown) [Example I-106, N-(6-(1H-pyrazolo[3,4-d]pyrimidin-4-yl)-1,2,3,4-tetrahydronaphthalen-1-yl)benzo[d]thiazole-2-carboxamide] yielded a pIC50 of 7.00 to 8.00.
`O=C(N[C@@H]1CCCc2cc(-c3ncnc4[nH]ccc34)ccc21)c1cc2c(s1)CCCC2` [Example I-81, (R)—N-(6-(7H-Pyrrolo[2,3-d]pyrimidin-4-yl)-1,2,3,4-tetrahydronaphthalen-1-yl)-4,5,6,7-tetrahydrobenzo[b]thiophene-2-carboxamide] was tested, and the pIC50 was 6.00 to 7.00.
`Cc1cc(-c2ccnc3[nH]ncc23)ncc1CNC(=O)c1cc2c(s1)CCCC2` [Example I-117, N-((4-methyl-6-(1H-pyrazolo[3,4-b]pyridin-4-yl)pyridin-3-yl)methyl)-4,5,6,7-tetrahydrobenzo[b]thiophene-2-carboxamide] showed a pIC50 of over 8.00.
With `CC(C)OC1CN(C(=O)NC2CCCCc3cc(-c4ncnc5[nH]c(-c6cnn(C)c6)cc45)ccc32)C1` (stereo not shown) [Example I-163, 3-isopropoxy-N-(2-(6-(1-methyl-1H-pyrazol-4-yl)-7H-pyrrolo[2,3-d]pyrimidin-4-yl)-6,7,8,9-tetrahydro-5H-benzo[7]annulen-5-yl)azetidine-1-carboxamide] the pIC50 was over 8.00.
Molecule `CC(C)(C)c1ccc(C(=O)NC2COCc3cc(-c4ncnc5[nH]ccc45)ccc32)nc1` (stereo not shown) [Example I-82, N-(7-(7H-pyrrolo[2,3-d]pyrimidin-4-yl)isochroman-4-yl)-5-(tert-butyl)picolinamide] has a pIC50 of 6.00 to 7.00.
`O=C(NCc1ccc(-c2ncnc3[nH]ccc23)cc1)N1Cc2ccccc2C1` [Example I-69, N-(4-(7H-pyrrolo[2,3-d]pyrimidin-4-yl)benzyl)isoindoline-2-carboxamide] showed a pIC50 of 7.00 to 8.00.
`O=C(NC1CCCc2cc(-c3ncnc4[nH]ncc34)ccc21)c1ccc(C(F)(F)F)c(Cl)c1` (stereo not shown) [Example I-92, N-(6-(1H-pyrazolo[3,4-d]pyrimidin-4-yl)-1,2,3,4-tetrahydronaphthalen-1-yl)-3-chloro-4-(trifluoromethyl)benzamide] was tested, and the pIC50 was 6.00 to 7.00.
Molecule `CC(C)(C)c1ccc(C(=O)NCc2ccc(-c3ncnc4[nH]ccc34)cc2C(N)=O)nc1` [Example I-7, 5-(tert-butyl)-N-(2-carbamoyl-4-(7H-pyrrolo[2,3-d]pyrimidin-4-yl)benzyl)picolinamide] has a pIC50 of 5.00 to 6.00.
With `CC(C)(C)c1ccc(C(=O)NCc2ccc(-c3ncnc4[nH]ccc34)cc2C(F)(F)F)nc1` [Example I-4, N-(4-(7H-pyrrolo[2,3-d]pyrimidin-4-yl)-2-(trifluoromethyl)benzyl)-5-(tert-butyl)picolinamide] the pIC50 was 7.00 to 8.00.
In the case of `O=C(NCc1ncc(-c2ccnc3[nH]ncc23)cc1F)c1cc2c(s1)CCCC2` [Example I-110, N-((3-fluoro-5-(1H-pyrazolo[3,4-b]pyridin-4-yl)pyridin-2-yl)methyl)-4,5,6,7-tetrahydrobenzo[b]thiophene-2-carboxamide], the pIC50 was 7.00 to 8.00.
For `CC(NC(=O)c1cc2c(s1)CCCC2)c1ccc(-c2ncnc3[nH]ccc23)cc1C(F)(F)F` (stereo not shown) [Example I-80, N-(1-(4-(7H-pyrrolo[2,3-d]pyrimidin-4-yl)-2-(trifluoromethyl)phenyl)ethyl)-4,5,6,7-tetrahydrobenzo[b]thiophene-2-carboxamide], the pIC50 was 7.00 to 8.00.
For `CC(C)(C)c1nnc(C(=O)NC2CCCc3cc(-c4ncnc5[nH]ncc45)ccc32)s1` (stereo not shown) [Example I-103, N-(6-(1H-pyrazolo[3,4-d]pyrimidin-4-yl)-1,2,3,4-tetrahydronaphthalen-1-yl)-5-(tert-butyl)-1,3,4-thiadiazole-2-carboxamide], the pIC50 was 6.00 to 7.00.
Work on `CC(C)(C)c1ccc(C(=O)NC2CCCc3cc(-c4ncnc5[nH]ncc45)ccc32)cc1` (stereo not shown) [Example I-88, N-(6-(1H-pyrazolo[3,4-d]pyrimidin-4-yl)-1,2,3,4-tetrahydronaphthalen-1-yl)-4-(tert-butyl)benzamide] yielded a pIC50 of 7.00 to 8.00.
With `CC(C)C(NC(=O)c1cc2c(s1)CCCC2)c1ccc(-c2ncnc3[nH]ncc23)cc1` (stereo not shown) [Example I-149, N-(1-(4-(1H-pyrazolo[3,4-d]pyrimidin-4-yl)phenyl)-2-methylpropyl)-4,5,6,7-tetrahydrobenzo[b]thiophene-2-carboxamide] the pIC50 was 5.00 to 6.00.
